# From patent US9359338B2, “Cyclopropanecarboxamido-substitute aromatic compounds as anti-tumor agents” (Crown Bioscience Inc. (Taiwan), priority 2012, dated 2016)
# Target: KDR kinase (790-1356 AA) (Homo sapiens (Human), UniProt P35968)
# Assay: Inhibitory activity at KDR kinase (Lance Ultra Ulight-TK assay)
# Type: biochemical
# Details: not given
# Method in brief: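 Kinase (20 nM final) and compound were premixed 20 min at 30 °C, then phosphorylation ran 2 h at 30 °C with ATP at 90 μM and Ulight-TK substrate at 50 μM, pH 7.5, Mg2+ and Mn2+ present.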
# KDR kinase (790-1356 AA), sequence (P35968 790-1356): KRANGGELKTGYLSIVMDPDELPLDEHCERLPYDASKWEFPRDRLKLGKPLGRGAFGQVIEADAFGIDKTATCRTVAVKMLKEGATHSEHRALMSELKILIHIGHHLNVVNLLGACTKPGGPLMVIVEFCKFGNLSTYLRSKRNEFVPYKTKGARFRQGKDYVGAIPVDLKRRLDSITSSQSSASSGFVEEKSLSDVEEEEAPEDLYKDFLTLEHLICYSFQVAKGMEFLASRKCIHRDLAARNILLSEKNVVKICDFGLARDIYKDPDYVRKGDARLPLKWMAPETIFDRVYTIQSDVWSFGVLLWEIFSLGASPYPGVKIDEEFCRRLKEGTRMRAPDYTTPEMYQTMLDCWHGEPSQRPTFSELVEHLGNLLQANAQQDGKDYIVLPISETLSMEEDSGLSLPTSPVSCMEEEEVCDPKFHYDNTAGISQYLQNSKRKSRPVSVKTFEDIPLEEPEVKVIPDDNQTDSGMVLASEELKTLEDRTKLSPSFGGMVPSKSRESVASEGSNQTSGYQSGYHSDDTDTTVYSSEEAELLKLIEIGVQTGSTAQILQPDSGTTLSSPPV
row,SMILES,IC50 [nM]
1,O=C(Nc1cc(-c2cccnc2)cc(C(F)(F)F)c1)Nc1ccc(Oc2ccnc(NC(=O)C3CC3)c2)c(F)c1 [Exe. 186],5
2,CC(C)Nc1cc(NC(=O)Nc2ccc(Oc3ccnc(NC(=O)C4CC4)c3)c(F)c2)cc(C(F)(F)F)c1 [Exe. 187],6.8
3,CN1CCC(Oc2ccc(NC(=O)Nc3ccc(Oc4ccnc(NC(=O)C5CC5)c4)c(F)c3)cc2C(F)(F)F)CC1 [Exe. 188],17.2
4,O=C(Nc1cc(N2CCOCC2)cc(C(F)(F)F)c1)Nc1ccc(Oc2ccnc(NC(=O)C3CC3)c2)c(F)c1 [Exe. 189],10.7
5,N#Cc1cc(NC(=O)Nc2ccc(Oc3ccnc(NC(=O)C4CC4)c3)c(F)c2)cc(C(F)(F)F)c1 [Exe. 190],11.9
6,Cc1cc(Oc2ccnc(NC(=O)C3CC3)c2)ccc1NC(=O)Nc1ccc(F)c(C(F)(F)F)c1 [Exe. 191],11.8
7,Cc1cc(Oc2ccnc(NC(=O)C3CC3)c2)ccc1NC(=O)Nc1cccc(C(F)(F)F)c1 [Exe. 193],10.9
8,Cc1cc(Oc2ccnc(NC(=O)C3CC3)c2)ccc1NC(=O)Nc1cccc(OC(F)(F)F)c1 [Exe. 194],10.5
9,Cc1cc(Oc2ccnc(NC(=O)C3CC3)c2)ccc1NC(=O)Nc1cc(OC(F)(F)F)ccc1F [Exe. 195],6.1
10,Cc1cc(Oc2ccnc(NC(=O)C3CC3)c2)ccc1NC(=O)Nc1ccc(F)c(OC(F)(F)F)c1 [Exe. 196],11.8
11,Cc1cc(Oc2ccnc(NC(=O)C3CC3)c2)ccc1NC(=O)Nc1ccc(Cl)c(C(C)(F)F)c1 [Exe. 199],14
12,O=C(Nc1ccc(F)c(C(F)(F)F)c1)Nc1ccc(Oc2ccnc(NC(=O)C3CC3)c2)cc1F [Exe. 205],25.1
13,O=C(Nc1cc(F)cc(C(F)(F)F)c1)Nc1ccc(Oc2ccnc(NC(=O)C3CC3)c2)cc1F [Exe. 208],14.9
14,O=C(Nc1ccc(Oc2ccnc(NC(=O)C3CC3)c2)cc1F)Nc1cc(C(F)(F)F)ccc1F [Exe. 209],8.4
15,O=C(Nc1ccc(Oc2ccnc(NC(=O)C3CC3)c2)cc1F)Nc1cc(C(F)(F)F)ccc1Cl [Exe. 210],11.8
16,O=C(Nc1cccc(C(F)(F)F)c1)Nc1ccc(Oc2ccnc(NC(=O)C3CC3)c2)cc1F [Exe. 211],7.8
17,O=C(Nc1cc(N2CC(F)(F)C2)cc(C(F)(F)F)c1)Nc1ccc(Oc2ccnc(NC(=O)C3CC3)c2)cc1F [Exe. 212],5.5
18,O=C(Nc1ccc(F)c(OC(F)(F)F)c1)Nc1ccc(Oc2ccnc(NC(=O)C3CC3)c2)cc1F [Exe. 215],13.2
19,CC(F)(F)c1ccnc(NC(=O)Nc2ccc(Oc3ccnc(NC(=O)C4CC4)c3)cc2F)c1 [Exe. 216],10.6

# Target: B-Raf kinase (Homo sapiens (Human), UniProt P15056)
# Sequence (P15056 416-766): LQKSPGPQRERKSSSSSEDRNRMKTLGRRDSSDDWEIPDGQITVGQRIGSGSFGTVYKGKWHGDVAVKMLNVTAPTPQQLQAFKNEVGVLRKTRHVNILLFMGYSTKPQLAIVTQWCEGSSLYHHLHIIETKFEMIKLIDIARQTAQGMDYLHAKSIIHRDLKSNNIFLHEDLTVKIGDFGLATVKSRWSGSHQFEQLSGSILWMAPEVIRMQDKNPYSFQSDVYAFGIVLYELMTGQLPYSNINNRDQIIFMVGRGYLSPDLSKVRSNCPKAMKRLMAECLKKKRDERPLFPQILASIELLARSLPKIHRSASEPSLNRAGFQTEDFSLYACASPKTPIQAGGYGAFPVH
# Assay: Inhibitory activity at B-Raf kinase (ADP-GLO assay)
# Type: biochemical
# Details: not given
# Method in brief: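 B-Raf (5 nM) was preincubated with compound (0.25% DMSO final) for 20 min at 30 °C in 50 mM Hepes pH 7.5, 10 mM Mg²⁺, 1 mM EGTA, 2 mM DTT. Reaction with 6 μM ATP and 30 nM GST-MEK1 ran 2 hrs at 30 °C. ADP was detected by ADP-GLO luminescence, giving IC50 values.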
row,SMILES,IC50 [nM]
1,O=C(Nc1cc(-c2cccnc2)cc(C(F)(F)F)c1)Nc1ccc(Oc2ccnc(NC(=O)C3CC3)c2)c(F)c1 [Exe. 186],27.5
2,CC(C)Nc1cc(NC(=O)Nc2ccc(Oc3ccnc(NC(=O)C4CC4)c3)c(F)c2)cc(C(F)(F)F)c1 [Exe. 187],34.3
3,CN1CCC(Oc2ccc(NC(=O)Nc3ccc(Oc4ccnc(NC(=O)C5CC5)c4)c(F)c3)cc2C(F)(F)F)CC1 [Exe. 188],19
4,O=C(Nc1cc(N2CCOCC2)cc(C(F)(F)F)c1)Nc1ccc(Oc2ccnc(NC(=O)C3CC3)c2)c(F)c1 [Exe. 189],29.8
5,N#Cc1cc(NC(=O)Nc2ccc(Oc3ccnc(NC(=O)C4CC4)c3)c(F)c2)cc(C(F)(F)F)c1 [Exe. 190],87
6,Cc1cc(Oc2ccnc(NC(=O)C3CC3)c2)ccc1NC(=O)Nc1ccc(F)c(C(F)(F)F)c1 [Exe. 191],10
7,Cc1cc(Oc2ccnc(NC(=O)C3CC3)c2)ccc1NC(=O)Nc1cccc(C(F)(F)F)c1 [Exe. 193],6.8
8,Cc1cc(Oc2ccnc(NC(=O)C3CC3)c2)ccc1NC(=O)Nc1cccc(OC(F)(F)F)c1 [Exe. 194],8.8
9,Cc1cc(Oc2ccnc(NC(=O)C3CC3)c2)ccc1NC(=O)Nc1cc(OC(F)(F)F)ccc1F [Exe. 195],13
10,Cc1cc(Oc2ccnc(NC(=O)C3CC3)c2)ccc1NC(=O)Nc1ccc(F)c(OC(F)(F)F)c1 [Exe. 196],13
11,Cc1cc(Oc2ccnc(NC(=O)C3CC3)c2)ccc1NC(=O)Nc1ccc(Cl)c(C(C)(F)F)c1 [Exe. 199],11.7
12,O=C(Nc1ccc(F)c(C(F)(F)F)c1)Nc1ccc(Oc2ccnc(NC(=O)C3CC3)c2)cc1F [Exe. 205],13
13,O=C(Nc1cc(F)cc(C(F)(F)F)c1)Nc1ccc(Oc2ccnc(NC(=O)C3CC3)c2)cc1F [Exe. 208],37
14,O=C(Nc1ccc(Oc2ccnc(NC(=O)C3CC3)c2)cc1F)Nc1cc(C(F)(F)F)ccc1F [Exe. 209],9
15,O=C(Nc1ccc(Oc2ccnc(NC(=O)C3CC3)c2)cc1F)Nc1cc(C(F)(F)F)ccc1Cl [Exe. 210],19
16,O=C(Nc1cccc(C(F)(F)F)c1)Nc1ccc(Oc2ccnc(NC(=O)C3CC3)c2)cc1F [Exe. 211],6.4
17,O=C(Nc1cc(N2CC(F)(F)C2)cc(C(F)(F)F)c1)Nc1ccc(Oc2ccnc(NC(=O)C3CC3)c2)cc1F [Exe. 212],20.1
18,O=C(Nc1ccc(F)c(OC(F)(F)F)c1)Nc1ccc(Oc2ccnc(NC(=O)C3CC3)c2)cc1F [Exe. 215],19
19,CC(F)(F)c1ccnc(NC(=O)Nc2ccc(Oc3ccnc(NC(=O)C4CC4)c3)cc2F)c1 [Exe. 216],10

# System: pERK in MDA-MB-231 cells
# Assay: Inhibitory activity at pERK (In Cell Western, MDA-MB-231 cells)
# Type: cell-based
# Details: Homo sapiens, MDA-MB-231, MDA-MB-231 cells; read-out: MDA-MB-231 pERK IC50
# Method in brief: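 pERK was measured by in-cell immunofluorescence (PI nuclear counterstain, Acumen read-out) in fixed MDA-MB-231 cells. Compound exposure lasted 2 h in DMEM with 0.1% BSA, using eight 3-fold dilutions starting at 30 μM final and 0.3% DMSO. IC50 values were derived from the resulting curves.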
row,SMILES,IC50 [nM]
1,O=C(Nc1cc(-c2cccnc2)cc(C(F)(F)F)c1)Nc1ccc(Oc2ccnc(NC(=O)C3CC3)c2)c(F)c1 [Exe. 186],53.3
2,CC(C)Nc1cc(NC(=O)Nc2ccc(Oc3ccnc(NC(=O)C4CC4)c3)c(F)c2)cc(C(F)(F)F)c1 [Exe. 187],63.8
3,CN1CCC(Oc2ccc(NC(=O)Nc3ccc(Oc4ccnc(NC(=O)C5CC5)c4)c(F)c3)cc2C(F)(F)F)CC1 [Exe. 188],23.5
4,O=C(Nc1cc(N2CCOCC2)cc(C(F)(F)F)c1)Nc1ccc(Oc2ccnc(NC(=O)C3CC3)c2)c(F)c1 [Exe. 189],19.3
5,N#Cc1cc(NC(=O)Nc2ccc(Oc3ccnc(NC(=O)C4CC4)c3)c(F)c2)cc(C(F)(F)F)c1 [Exe. 190],74.3
6,Cc1cc(Oc2ccnc(NC(=O)C3CC3)c2)ccc1NC(=O)Nc1ccc(F)c(C(F)(F)F)c1 [Exe. 191],9.4
7,Cc1cc(Oc2ccnc(NC(=O)C3CC3)c2)ccc1NC(=O)Nc1cccc(C(F)(F)F)c1 [Exe. 193],7.4
8,Cc1cc(Oc2ccnc(NC(=O)C3CC3)c2)ccc1NC(=O)Nc1cccc(OC(F)(F)F)c1 [Exe. 194],9.5
9,Cc1cc(Oc2ccnc(NC(=O)C3CC3)c2)ccc1NC(=O)Nc1cc(OC(F)(F)F)ccc1F [Exe. 195],10.1
10,Cc1cc(Oc2ccnc(NC(=O)C3CC3)c2)ccc1NC(=O)Nc1ccc(F)c(OC(F)(F)F)c1 [Exe. 196],14.6
11,Cc1cc(Oc2ccnc(NC(=O)C3CC3)c2)ccc1NC(=O)Nc1ccc(Cl)c(C(C)(F)F)c1 [Exe. 199],11
12,O=C(Nc1ccc(F)c(C(F)(F)F)c1)Nc1ccc(Oc2ccnc(NC(=O)C3CC3)c2)cc1F [Exe. 205],9.2
13,O=C(Nc1cc(F)cc(C(F)(F)F)c1)Nc1ccc(Oc2ccnc(NC(=O)C3CC3)c2)cc1F [Exe. 208],9.8
14,O=C(Nc1ccc(Oc2ccnc(NC(=O)C3CC3)c2)cc1F)Nc1cc(C(F)(F)F)ccc1F [Exe. 209],5.9
15,O=C(Nc1ccc(Oc2ccnc(NC(=O)C3CC3)c2)cc1F)Nc1cc(C(F)(F)F)ccc1Cl [Exe. 210],17
16,O=C(Nc1cccc(C(F)(F)F)c1)Nc1ccc(Oc2ccnc(NC(=O)C3CC3)c2)cc1F [Exe. 211],2.3
17,O=C(Nc1cc(N2CC(F)(F)C2)cc(C(F)(F)F)c1)Nc1ccc(Oc2ccnc(NC(=O)C3CC3)c2)cc1F [Exe. 212],21.1
18,O=C(Nc1ccc(F)c(OC(F)(F)F)c1)Nc1ccc(Oc2ccnc(NC(=O)C3CC3)c2)cc1F [Exe. 215],14.5
19,CC(F)(F)c1ccnc(NC(=O)Nc2ccc(Oc3ccnc(NC(=O)C4CC4)c3)cc2F)c1 [Exe. 216],11.8

# System: PLC-PRF-5 cells
# Assay: Inhibition of proliferation of PLC-PRF-5 cells (ATPlite)
# Type: cell-based
# Details: Homo sapiens, PLC-PRF-5, PLC-PRF-5 cells; read-out: PLC-PRF-5 cell proliferation IC50
# Method in brief: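 Antiproliferative IC50 from luminescent ATP detection (ATPlite) after 96 h compound exposure at 37 °C. Cells grown in DMEM plus 10% FBS and allowed 2 h to settle, then dosed with eight 3-fold dilutions topping at 30 μM final, DMSO 0.3%.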
row,SMILES,IC50 [nM]
1,O=C(Nc1cc(-c2cccnc2)cc(C(F)(F)F)c1)Nc1ccc(Oc2ccnc(NC(=O)C3CC3)c2)c(F)c1 [Exe. 186],640
2,CC(C)Nc1cc(NC(=O)Nc2ccc(Oc3ccnc(NC(=O)C4CC4)c3)c(F)c2)cc(C(F)(F)F)c1 [Exe. 187],638
3,CN1CCC(Oc2ccc(NC(=O)Nc3ccc(Oc4ccnc(NC(=O)C5CC5)c4)c(F)c3)cc2C(F)(F)F)CC1 [Exe. 188],34
4,O=C(Nc1cc(N2CCOCC2)cc(C(F)(F)F)c1)Nc1ccc(Oc2ccnc(NC(=O)C3CC3)c2)c(F)c1 [Exe. 189],260
5,N#Cc1cc(NC(=O)Nc2ccc(Oc3ccnc(NC(=O)C4CC4)c3)c(F)c2)cc(C(F)(F)F)c1 [Exe. 190],875
6,Cc1cc(Oc2ccnc(NC(=O)C3CC3)c2)ccc1NC(=O)Nc1ccc(F)c(C(F)(F)F)c1 [Exe. 191],2530
7,Cc1cc(Oc2ccnc(NC(=O)C3CC3)c2)ccc1NC(=O)Nc1cccc(C(F)(F)F)c1 [Exe. 193],2300
8,Cc1cc(Oc2ccnc(NC(=O)C3CC3)c2)ccc1NC(=O)Nc1cccc(OC(F)(F)F)c1 [Exe. 194],2320
9,Cc1cc(Oc2ccnc(NC(=O)C3CC3)c2)ccc1NC(=O)Nc1cc(OC(F)(F)F)ccc1F [Exe. 195],790
10,Cc1cc(Oc2ccnc(NC(=O)C3CC3)c2)ccc1NC(=O)Nc1ccc(F)c(OC(F)(F)F)c1 [Exe. 196],2500
11,Cc1cc(Oc2ccnc(NC(=O)C3CC3)c2)ccc1NC(=O)Nc1ccc(Cl)c(C(C)(F)F)c1 [Exe. 199],3700
12,O=C(Nc1ccc(F)c(C(F)(F)F)c1)Nc1ccc(Oc2ccnc(NC(=O)C3CC3)c2)cc1F [Exe. 205],1090
13,O=C(Nc1cc(F)cc(C(F)(F)F)c1)Nc1ccc(Oc2ccnc(NC(=O)C3CC3)c2)cc1F [Exe. 208],640
14,O=C(Nc1ccc(Oc2ccnc(NC(=O)C3CC3)c2)cc1F)Nc1cc(C(F)(F)F)ccc1F [Exe. 209],51
15,O=C(Nc1ccc(Oc2ccnc(NC(=O)C3CC3)c2)cc1F)Nc1cc(C(F)(F)F)ccc1Cl [Exe. 210],636
16,O=C(Nc1cccc(C(F)(F)F)c1)Nc1ccc(Oc2ccnc(NC(=O)C3CC3)c2)cc1F [Exe. 211],190
17,O=C(Nc1cc(N2CC(F)(F)C2)cc(C(F)(F)F)c1)Nc1ccc(Oc2ccnc(NC(=O)C3CC3)c2)cc1F [Exe. 212],177
18,O=C(Nc1ccc(F)c(OC(F)(F)F)c1)Nc1ccc(Oc2ccnc(NC(=O)C3CC3)c2)cc1F [Exe. 215],618
19,CC(F)(F)c1ccnc(NC(=O)Nc2ccc(Oc3ccnc(NC(=O)C4CC4)c3)cc2F)c1 [Exe. 216],536
